Read-outs that look alike come from different tables or passages of the source.
Assays:
Test in all cases: biochemical
Type in all cases: biochemical
[1] = target: 363 human kinases (including Aurora A/B/C) (Homo sapiens, UniProt P08631); conditions: HCK; for remaining activity at 0.1 µM: 100 nM; for remaining activity at 0.1 µM / remaining activity at 0.5 µM: read-out: % Enzyme Activity (relative to DMSO controls)
From the text: (§1) However, the Aurora A/B selectivity ratios derived from our in vitro and in vivo data can be compared to prioritize inhibitors.

[2] = target: 363 human kinases (including Aurora A/B/C) (Homo sapiens, UniProt Q13554); conditions: CAMK2b, [ATP] 100 µM; for remaining activity at 0.1 µM: 100 nM; for remaining activity at 0.1 µM / remaining activity at 0.5 µM: read-out: % Enzyme Activity (relative to DMSO controls)
From the text: as §1

[3] = target: 363 human kinases (including Aurora A/B/C) (Homo sapiens, UniProt Q13627); conditions: DYRK1/DYRK1A, [ATP] 50 µM; for remaining activity at 0.1 µM: 100 nM; for remaining activity at 0.1 µM / remaining activity at 0.5 µM: read-out: % Enzyme Activity (relative to DMSO controls)
From the text: as §1

[4] = target: T1, 363 human kinases (including Aurora A/B/C) (Homo sapiens, UniProt Q13188); conditions: MST2/STK3; for remaining activity at 0.1 µM: 100 nM; for remaining activity at 0.1 µM / remaining activity at 0.5 µM: read-out: % Enzyme Activity (relative to DMSO controls)
T1 sequence (Q13188 1-491): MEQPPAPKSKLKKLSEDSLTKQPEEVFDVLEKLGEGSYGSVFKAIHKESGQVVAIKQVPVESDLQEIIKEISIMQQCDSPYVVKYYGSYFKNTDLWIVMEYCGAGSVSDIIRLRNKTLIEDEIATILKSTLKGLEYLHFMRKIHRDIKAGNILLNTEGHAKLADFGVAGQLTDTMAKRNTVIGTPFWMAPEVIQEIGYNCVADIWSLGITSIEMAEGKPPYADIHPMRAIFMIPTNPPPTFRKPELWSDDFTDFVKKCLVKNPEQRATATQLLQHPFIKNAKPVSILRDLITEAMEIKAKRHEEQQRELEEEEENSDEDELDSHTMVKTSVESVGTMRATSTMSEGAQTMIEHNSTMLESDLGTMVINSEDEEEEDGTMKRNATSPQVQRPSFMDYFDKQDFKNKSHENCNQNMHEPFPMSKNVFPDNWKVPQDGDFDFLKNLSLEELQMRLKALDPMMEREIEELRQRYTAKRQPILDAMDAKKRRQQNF
From the text: as §1

[5] = target: 363 human kinases (including Aurora A/B/C) (Homo sapiens, UniProt Q13882); conditions: BRK, [ATP] 100 µM; for remaining activity at 0.1 µM: 100 nM; for remaining activity at 0.1 µM / remaining activity at 0.5 µM: read-out: % Enzyme Activity (relative to DMSO controls)
From the text: as §1

[6] = target: 363 human kinases (including Aurora A/B/C) (Homo sapiens, UniProt O94921); conditions: CDK14/cyclin Y (PFTK1), [ATP] 10 µM; for remaining activity at 0.1 µM: 100 nM; for remaining activity at 0.1 µM / remaining activity at 0.5 µM: read-out: % Enzyme Activity (relative to DMSO controls)
From the text: as §1

[7] = target: 363 human kinases (including Aurora A/B/C) (Homo sapiens, UniProt P42684); conditions: ABL2/ARG, [ATP] 30 µM; for remaining activity at 0.1 µM: 100 nM; for remaining activity at 0.1 µM / remaining activity at 0.5 µM: read-out: % Enzyme Activity (relative to DMSO controls)
From the text: as §1

[8] = target: T2, 363 human kinases (including Aurora A/B/C) (Homo sapiens, UniProt O14965); conditions: [ATP] 2.5 µM; for remaining activity at 0.1 µM: 100 nM
T2 sequence (O14965 1-403): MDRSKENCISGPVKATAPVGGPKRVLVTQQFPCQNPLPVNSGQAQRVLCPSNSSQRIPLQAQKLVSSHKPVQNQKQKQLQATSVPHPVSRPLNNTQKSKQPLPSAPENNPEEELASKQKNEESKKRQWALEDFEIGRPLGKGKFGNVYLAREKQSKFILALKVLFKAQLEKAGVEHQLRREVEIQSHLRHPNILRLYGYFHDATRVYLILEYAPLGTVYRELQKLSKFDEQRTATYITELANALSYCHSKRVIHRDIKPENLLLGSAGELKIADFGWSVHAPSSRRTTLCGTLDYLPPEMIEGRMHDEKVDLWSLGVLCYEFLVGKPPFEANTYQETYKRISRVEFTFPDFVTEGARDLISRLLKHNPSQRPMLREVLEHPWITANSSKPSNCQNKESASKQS
From the text: as §1

[9] = target: T3, 363 human kinases (including Aurora A/B/C) (Homo sapiens, UniProt Q13237); conditions: PKG2/PRKG2; for remaining activity at 0.1 µM: 100 nM; for remaining activity at 0.1 µM / remaining activity at 0.5 µM: read-out: % Enzyme Activity (relative to DMSO controls)
T3 sequence (Q13237 1-762): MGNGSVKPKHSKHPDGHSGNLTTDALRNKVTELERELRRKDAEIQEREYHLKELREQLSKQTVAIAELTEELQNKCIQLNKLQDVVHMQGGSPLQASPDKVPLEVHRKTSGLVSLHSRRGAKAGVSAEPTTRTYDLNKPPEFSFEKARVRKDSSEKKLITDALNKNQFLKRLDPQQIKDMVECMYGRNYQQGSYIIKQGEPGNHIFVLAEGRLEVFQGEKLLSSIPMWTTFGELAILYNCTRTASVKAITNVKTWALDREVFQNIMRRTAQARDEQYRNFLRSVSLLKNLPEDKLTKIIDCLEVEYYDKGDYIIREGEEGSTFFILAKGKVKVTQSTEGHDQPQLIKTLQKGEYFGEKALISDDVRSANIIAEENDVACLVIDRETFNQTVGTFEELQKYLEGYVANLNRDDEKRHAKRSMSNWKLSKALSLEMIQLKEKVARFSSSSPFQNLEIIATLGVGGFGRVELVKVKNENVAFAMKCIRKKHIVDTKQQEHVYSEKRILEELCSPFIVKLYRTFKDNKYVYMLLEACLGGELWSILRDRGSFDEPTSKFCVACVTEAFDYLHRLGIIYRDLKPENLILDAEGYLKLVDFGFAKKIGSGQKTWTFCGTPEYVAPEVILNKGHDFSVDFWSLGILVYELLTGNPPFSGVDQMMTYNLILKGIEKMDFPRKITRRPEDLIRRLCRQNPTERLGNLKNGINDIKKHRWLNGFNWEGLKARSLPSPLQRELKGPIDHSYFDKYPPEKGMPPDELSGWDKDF
From the text: as §1

[10] = target: 363 human kinases (including Aurora A/B/C) (Homo sapiens, UniProt P23443); conditions: p70S6K/RPS6KB1; for remaining activity at 0.1 µM: 100 nM; for remaining activity at 0.1 µM / remaining activity at 0.5 µM: read-out: % Enzyme Activity (relative to DMSO controls)
From the text: as §1

[11] = target: 363 human kinases (including Aurora A/B/C) (Homo sapiens, UniProt Q13555); conditions: CAMK2g, [ATP] 2.5 µM; for remaining activity at 0.1 µM: 100 nM; for remaining activity at 0.1 µM / remaining activity at 0.5 µM: read-out: % Enzyme Activity (relative to DMSO controls)
Sequence of 363 human kinases (including Aurora A/B/C) (Homo sapiens, UniProt Q13555) (Q13555 whole entry): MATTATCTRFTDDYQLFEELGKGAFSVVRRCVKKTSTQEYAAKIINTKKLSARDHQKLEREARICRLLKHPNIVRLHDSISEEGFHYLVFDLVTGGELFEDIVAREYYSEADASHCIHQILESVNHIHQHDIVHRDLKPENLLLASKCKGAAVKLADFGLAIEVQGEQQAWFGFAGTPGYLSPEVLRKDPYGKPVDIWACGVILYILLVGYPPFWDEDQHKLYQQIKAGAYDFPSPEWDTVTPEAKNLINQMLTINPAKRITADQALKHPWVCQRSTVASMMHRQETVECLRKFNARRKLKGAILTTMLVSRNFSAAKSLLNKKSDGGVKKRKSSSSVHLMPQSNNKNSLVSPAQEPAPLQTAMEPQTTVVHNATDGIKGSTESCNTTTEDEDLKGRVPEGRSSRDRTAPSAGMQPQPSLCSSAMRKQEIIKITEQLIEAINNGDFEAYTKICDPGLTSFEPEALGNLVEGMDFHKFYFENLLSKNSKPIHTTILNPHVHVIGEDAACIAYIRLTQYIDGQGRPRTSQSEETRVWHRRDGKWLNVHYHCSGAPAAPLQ
From the text: as §1

Sequence of 363 human kinases (including Aurora A/B/C) (Homo sapiens, UniProt P23443) (P23443 whole entry): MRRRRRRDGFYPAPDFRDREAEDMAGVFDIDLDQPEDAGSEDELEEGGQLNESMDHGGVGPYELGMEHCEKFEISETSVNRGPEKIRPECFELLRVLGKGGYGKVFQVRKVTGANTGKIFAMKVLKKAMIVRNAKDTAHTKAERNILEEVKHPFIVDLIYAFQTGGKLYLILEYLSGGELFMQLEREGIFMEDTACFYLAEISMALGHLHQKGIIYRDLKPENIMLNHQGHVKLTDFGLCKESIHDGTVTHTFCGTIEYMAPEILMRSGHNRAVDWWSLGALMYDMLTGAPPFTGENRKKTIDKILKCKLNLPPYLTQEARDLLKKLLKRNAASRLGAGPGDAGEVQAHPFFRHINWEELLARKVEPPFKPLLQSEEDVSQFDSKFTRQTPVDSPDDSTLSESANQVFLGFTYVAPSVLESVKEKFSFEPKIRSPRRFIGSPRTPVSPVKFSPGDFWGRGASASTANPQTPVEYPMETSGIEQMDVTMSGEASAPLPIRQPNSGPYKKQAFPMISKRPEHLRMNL
Sequence of 363 human kinases (including Aurora A/B/C) (Homo sapiens, UniProt P42684) (P42684 whole entry): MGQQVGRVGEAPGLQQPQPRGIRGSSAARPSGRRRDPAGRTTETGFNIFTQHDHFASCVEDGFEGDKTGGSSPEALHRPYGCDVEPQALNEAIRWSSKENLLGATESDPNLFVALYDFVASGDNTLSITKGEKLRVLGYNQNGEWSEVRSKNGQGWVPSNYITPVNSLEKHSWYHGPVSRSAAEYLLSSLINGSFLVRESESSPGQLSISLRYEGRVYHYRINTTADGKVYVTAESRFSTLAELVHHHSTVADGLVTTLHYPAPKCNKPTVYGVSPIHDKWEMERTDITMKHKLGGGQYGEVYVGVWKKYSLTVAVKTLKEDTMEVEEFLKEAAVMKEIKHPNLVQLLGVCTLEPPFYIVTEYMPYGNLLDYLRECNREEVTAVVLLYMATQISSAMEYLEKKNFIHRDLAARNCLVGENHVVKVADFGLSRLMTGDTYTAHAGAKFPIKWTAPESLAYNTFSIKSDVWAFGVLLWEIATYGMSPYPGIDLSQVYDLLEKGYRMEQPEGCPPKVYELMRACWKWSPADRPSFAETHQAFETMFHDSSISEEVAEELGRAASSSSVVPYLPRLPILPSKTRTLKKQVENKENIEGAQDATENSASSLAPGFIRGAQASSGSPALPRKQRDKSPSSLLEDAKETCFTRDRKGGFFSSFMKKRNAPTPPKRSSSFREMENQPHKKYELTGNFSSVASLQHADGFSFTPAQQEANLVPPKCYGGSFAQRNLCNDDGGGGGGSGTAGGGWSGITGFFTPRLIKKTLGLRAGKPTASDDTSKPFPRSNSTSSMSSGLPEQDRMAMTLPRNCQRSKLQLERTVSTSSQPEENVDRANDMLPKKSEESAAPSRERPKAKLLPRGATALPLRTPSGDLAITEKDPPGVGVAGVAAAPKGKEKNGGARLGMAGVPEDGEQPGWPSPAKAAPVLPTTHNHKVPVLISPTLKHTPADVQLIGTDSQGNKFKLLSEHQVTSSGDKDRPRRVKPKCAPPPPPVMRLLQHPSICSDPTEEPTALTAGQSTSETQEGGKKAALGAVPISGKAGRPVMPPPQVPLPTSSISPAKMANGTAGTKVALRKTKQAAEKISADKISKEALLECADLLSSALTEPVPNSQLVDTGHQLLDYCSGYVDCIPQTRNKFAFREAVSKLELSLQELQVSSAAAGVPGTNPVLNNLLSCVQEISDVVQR
Sequence of 363 human kinases (including Aurora A/B/C) (Homo sapiens, UniProt O94921) (O94921 whole entry): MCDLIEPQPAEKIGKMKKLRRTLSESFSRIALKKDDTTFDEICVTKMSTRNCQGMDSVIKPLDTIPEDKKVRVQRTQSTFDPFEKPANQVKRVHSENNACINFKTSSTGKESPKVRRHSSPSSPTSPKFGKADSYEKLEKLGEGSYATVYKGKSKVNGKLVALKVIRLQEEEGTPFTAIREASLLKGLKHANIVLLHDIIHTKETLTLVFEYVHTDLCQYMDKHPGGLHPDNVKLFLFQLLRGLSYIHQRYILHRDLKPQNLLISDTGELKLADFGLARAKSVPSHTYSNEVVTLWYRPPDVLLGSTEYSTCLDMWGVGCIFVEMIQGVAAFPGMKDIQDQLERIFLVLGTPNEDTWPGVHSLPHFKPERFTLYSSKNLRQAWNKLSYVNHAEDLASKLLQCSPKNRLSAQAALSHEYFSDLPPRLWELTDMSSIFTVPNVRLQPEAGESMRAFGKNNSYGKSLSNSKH
Sequence of 363 human kinases (including Aurora A/B/C) (Homo sapiens, UniProt Q13882) (Q13882 whole entry): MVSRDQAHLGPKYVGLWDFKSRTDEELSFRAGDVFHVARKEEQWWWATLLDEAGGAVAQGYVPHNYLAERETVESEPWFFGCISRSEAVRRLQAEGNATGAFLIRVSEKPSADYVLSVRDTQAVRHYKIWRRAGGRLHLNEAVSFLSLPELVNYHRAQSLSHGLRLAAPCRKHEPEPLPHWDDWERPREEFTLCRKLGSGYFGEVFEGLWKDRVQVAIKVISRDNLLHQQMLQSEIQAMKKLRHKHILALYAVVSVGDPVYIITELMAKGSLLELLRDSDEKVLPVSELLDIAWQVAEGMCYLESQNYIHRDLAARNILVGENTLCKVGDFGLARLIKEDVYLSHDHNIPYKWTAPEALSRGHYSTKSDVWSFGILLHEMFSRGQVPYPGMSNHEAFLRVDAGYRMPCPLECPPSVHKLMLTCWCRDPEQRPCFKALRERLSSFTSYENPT
Sequence of 363 human kinases (including Aurora A/B/C) (Homo sapiens, UniProt Q13554) (Q13554 whole entry): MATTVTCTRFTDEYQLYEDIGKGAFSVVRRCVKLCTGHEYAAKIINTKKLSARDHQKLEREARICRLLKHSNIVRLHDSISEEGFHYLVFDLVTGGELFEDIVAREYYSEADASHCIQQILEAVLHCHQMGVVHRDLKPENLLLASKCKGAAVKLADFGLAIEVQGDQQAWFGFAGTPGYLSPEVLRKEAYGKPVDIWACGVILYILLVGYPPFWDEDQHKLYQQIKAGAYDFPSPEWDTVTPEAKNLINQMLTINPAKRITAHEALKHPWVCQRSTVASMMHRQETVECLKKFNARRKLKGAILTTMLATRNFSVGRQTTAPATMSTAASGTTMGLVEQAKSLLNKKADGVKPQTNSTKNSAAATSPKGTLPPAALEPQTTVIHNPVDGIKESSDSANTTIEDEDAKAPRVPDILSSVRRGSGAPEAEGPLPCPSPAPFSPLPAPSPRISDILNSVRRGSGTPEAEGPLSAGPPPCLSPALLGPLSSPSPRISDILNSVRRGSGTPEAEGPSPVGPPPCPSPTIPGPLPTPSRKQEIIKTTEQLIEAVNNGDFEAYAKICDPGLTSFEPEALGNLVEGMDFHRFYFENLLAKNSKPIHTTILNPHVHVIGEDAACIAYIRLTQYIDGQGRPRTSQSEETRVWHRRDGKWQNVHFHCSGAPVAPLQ
Sequence of 363 human kinases (including Aurora A/B/C) (Homo sapiens, UniProt P08631) (P08631 whole entry): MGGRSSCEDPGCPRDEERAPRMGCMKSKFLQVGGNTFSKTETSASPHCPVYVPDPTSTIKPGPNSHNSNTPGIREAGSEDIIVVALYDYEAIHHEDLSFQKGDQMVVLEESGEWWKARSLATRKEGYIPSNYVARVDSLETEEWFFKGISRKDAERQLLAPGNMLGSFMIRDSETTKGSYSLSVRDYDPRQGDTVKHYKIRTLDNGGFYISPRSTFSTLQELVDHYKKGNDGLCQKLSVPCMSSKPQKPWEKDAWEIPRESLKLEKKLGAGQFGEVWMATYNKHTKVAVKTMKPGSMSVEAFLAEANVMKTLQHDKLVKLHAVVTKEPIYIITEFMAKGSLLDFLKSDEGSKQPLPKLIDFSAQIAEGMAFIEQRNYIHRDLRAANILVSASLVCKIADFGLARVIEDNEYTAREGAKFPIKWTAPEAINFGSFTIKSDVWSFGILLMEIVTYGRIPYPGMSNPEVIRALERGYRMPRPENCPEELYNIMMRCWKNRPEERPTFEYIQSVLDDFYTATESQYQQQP

Row | Compound | remaining activity at 0.1 µM [1] [%] | remaining activity at 0.1 µM [2] [%] | remaining activity at 0.1 µM [3] [%] | remaining activity at 0.1 µM [4] [%] | remaining activity at 0.1 µM [5] [%] | remaining activity at 0.1 µM [6] [%] | remaining activity at 0.1 µM [7] [%] | remaining activity at 0.1 µM [9] [%] | remaining activity at 0.1 µM [10] [%] | remaining activity at 0.1 µM [11] [%] | remaining activity at 0.5 µM ([1]; 500 nM) [%] | remaining activity at 0.5 µM ([2]; 500 nM) [%] | remaining activity at 0.5 µM ([3]; 500 nM) [%] | remaining activity at 0.5 µM ([4]; 500 nM) [%] | remaining activity at 0.5 µM ([5]; 500 nM) [%] | remaining activity at 0.5 µM ([6]; 500 nM) [%] | remaining activity at 0.5 µM ([7]; 500 nM) [%] | remaining activity at 0.5 µM ([9]; 500 nM) [%] | remaining activity at 0.5 µM ([10]; 500 nM) [%] | remaining activity at 0.5 µM ([11]; 500 nM) [%] | also measured
1 | CCn1cc(-c2ccnc3[nH]c(-c4cccc(CN(C)C)c4)cc23)c(-c2ccc(NC(=O)N(C)C)cc2)n1 [GSK1070916] | 102 | 101 | 97.5 | 91.8 | 76.6 | 108 | 94.2 | 97.2 | 101 | 94.5 |  |  |  |  |  |  |  |  |  |  | remaining activity at 0.1 µM ([8]; read-out: % Enzyme Activity (relative to DMSO controls), Aurora A): 25.9%
2 | O=C(O)[C@]1(Cc2cccc(Nc3nccs3)n2)CC[C@@H](Oc2cccc(Cl)c2F)CC1 [MK-5108] | 46.1 | 95.5 | 100 | 87.7 | 20.2 | 102 | 12.2 | 106 | 98.3 | 91.1 | 20.2 | 97.8 | 89.7 | 48.4 | 3.11 | 103 | 2.32 | 97.3 | 97.7 | 94.4 | remaining activity at 0.1 µM ([8]; Aurora A, read-out: % Enzyme Activity (relative to DMSO controls)): 2.38%
3 | O=C(c1cccc(Cl)c1F)N1CCN(Cc2cccc(Nc3nccs3)n2)CC1 [MK-8745] |  |  |  |  |  |  |  |  |  |  | 53.9 | 101 | 96.7 | 46.6 | 29 | 104 | 85.8 | 95.3 | 100 | 94.3 | % Enzyme Activity (relative to DMSO controls) ([1]; 500 nM): 52.42%; % Enzyme Activity (relative to DMSO controls) ([2]; 500 nM): 99.72%; % Enzyme Activity (relative to DMSO controls) ([3]; 500 nM): 93.95%; % Enzyme Activity (relative to DMSO controls) ([4]; 500 nM): 46.05%; % Enzyme Activity (relative to DMSO controls) ([5]; 500 nM): 29.01%; % Enzyme Activity (relative to DMSO controls) ([6]; 500 nM): 102.17%; % Enzyme Activity (relative to DMSO controls) ([7]; 500 nM): 85.19%; % Enzyme Activity (relative to DMSO controls) ([8]; Aurora A, 500 nM): 0.37%; remaining activity at 0.5 µM ([8]; Aurora A, 500 nM, read-out: % Enzyme Activity (relative to DMSO controls)): 0.55%; % Enzyme Activity (relative to DMSO controls) ([9]; 500 nM): 95.25%; % Enzyme Activity (relative to DMSO controls) ([10]; 500 nM): 99.31%; % Enzyme Activity (relative to DMSO controls) ([11]; 500 nM): 92.25%

From paper PMC4685510, “A Cell Biologist’s Field Guide to Aurora Kinase Inhibitors” (Frontiers in Oncology, 2015)
